Experimental data from patent US12398107B2, “Fungicidal nitroanilino substituted pyrazoles” (FMC Corporation, priority 2018, dated 2025).

Key:
Type in all cases: in vivo
Alternaria solani = test: Test F: tomato early blight, preventive spray on tomato seedlings; conditions: 100 = 100% disease control, 0 = no control; for pest or weed control at 50 ppm / Test F disease control rating (tomato early blight): 50 ppm
How it was run: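 Preventive test: one day after seedlings were sprayed to run-off with ppm-level suspensions (acetone/water 50/50, 250 ppm PEG400), A. solani spore inoculation followed. Incubation was 48 h at 27° C in saturated air plus 3 days at 20° C; disease control was scored visually versus controls (100 = full control).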

[1] = tested on: Blumeria graminis f. sp. tritici; test: Test C: wheat powdery mildew, preventive spray on wheat seedlings; conditions: rated after 8 days, 100 = 100% disease control, 0 = no control; for pest or weed control at 50 ppm / Test C disease control rating (wheat powdery mildew): 50 ppm
How it was run: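 Wheat seedlings got a run-off spray of test suspension (ppm in acetone/water 50/50, 250 ppm PEG400, acetone 3% of volume), then spore-dust inoculation with wheat powdery mildew one day later. After 8 days' growth-chamber incubation at 20° C, disease control scored visually on a 0–100 scale versus untreated controls.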

Phakopsora pachyrhizi = test: Test D: Asian soybean rust, preventive spray on soybean seedlings; conditions: 100 = 100% disease control, 0 = no control; for pest or weed control at 50 ppm / Test D disease control rating (Asian soybean rust): 50 ppm
How it was run: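 Soybean seedlings sprayed to run-off with compound suspension (ppm, in 50/50 acetone/water with 250 ppm PEG400), inoculated next day with P. pachyrhizi spores, held 24 h saturated at 22°C then 8 days at 22°C. Visual rating 0-100% disease control relative to controls.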

Botrytis cinerea = test: Test E: tomato Botrytis, preventive spray on tomato seedlings; conditions: 100 = 100% disease control, 0 = no control; for pest or weed control at 50 ppm / Test E disease control rating (tomato Botrytis): 50 ppm
How it was run: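 Preventive test: spore inoculation one day after run-off spraying of compound suspension (3% acetone, acetone/water 50/50, 250 ppm PEG400). Incubation 20 °C saturated humidity for 48 h, followed by 3 days at 24 °C growth chamber; disease control scored visually, 100 = full control.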

Septoria tritici = test: Test A: wheat leaf blotch, preventive spray on wheat seedlings; conditions: 100 = 100% disease control, 0 = no control relative to controls; for pest or weed control at 50 ppm / Test A disease control rating (wheat leaf blotch): 50 ppm
How it was run: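 Preventive test: seedlings sprayed to run-off one day before Septoria tritici spore inoculation, with ppm doses in acetone/water containing 250 ppm PEG400. After 48 h at 24 °C in saturated air and 17 days at 20 °C, plants were scored 0–100 for disease control versus untreated controls.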

[2] = tested on: Puccinia recondita f. sp. tritici; test: Test B: wheat leaf rust, preventive spray on wheat seedlings; conditions: 100 = 100% disease control, 0 = no control relative to controls; for pest or weed control at 50 ppm / Test B disease control rating (wheat leaf rust): 50 ppm
How it was run: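 Wheat seedlings got a run-off spray (ppm, acetone/water 50/50, 250 ppm PEG400) and one day later a spore inoculum. After 24 h at 20° C. in saturated air and 7 days at 20° C., disease was scored as % control relative to controls (100 = full control).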

[3] = Alternaria solani, read-out: Test F disease control rating (tomato early blight)
[4] = Blumeria graminis, 192 h, read-out: Test C disease control rating (wheat powdery mildew)
[5] = Phakopsora pachyrhizi, read-out: Test D disease control rating (Asian soybean rust)
[6] = Botrytis cinerea, read-out: Test E disease control rating (tomato Botrytis)
[7] = Zymoseptoria tritici, read-out: Test A disease control rating (wheat leaf blotch)
[8] = read-out: Test B disease control rating (wheat leaf rust)

Compound | pest or weed control at 50 ppm (Alternaria solani; [3]) | pest or weed control at 50 ppm [1, 4] | pest or weed control at 50 ppm (Phakopsora pachyrhizi; [5]) | pest or weed control at 50 ppm (Botrytis cinerea; [6]) | pest or weed control at 50 ppm (Septoria tritici; [7]) | pest or weed control at 50 ppm [2, 8] | Test F disease control rating (tomato early blight) (Alternaria solani) | Test C disease control rating (wheat powdery mildew) [1] | Test D disease control rating (Asian soybean rust) (Phakopsora pachyrhizi) | Test E disease control rating (tomato Botrytis) (Botrytis cinerea) | Test A disease control rating (wheat leaf blotch) (Septoria tritici) | Test B disease control rating (wheat leaf rust) [2] | pest or weed control at 10 ppm (Alternaria solani; Alternaria solani, 10 ppm, read-out: Test F disease control rating (tomato early blight)) | pest or weed control at 10 ppm ([1]; Blumeria graminis, 192 h, 10 ppm, read-out: Test C disease control rating (wheat powdery mildew)) | pest or weed control at 10 ppm (Phakopsora pachyrhizi; Phakopsora pachyrhizi, 10 ppm, read-out: Test D disease control rating (Asian soybean rust)) | pest or weed control at 10 ppm (Botrytis cinerea; Botrytis cinerea, 10 ppm, read-out: Test E disease control rating (tomato Botrytis)) | pest or weed control at 10 ppm (Septoria tritici; Zymoseptoria tritici, 10 ppm, read-out: Test A disease control rating (wheat leaf blotch)) | pest or weed control at 10 ppm ([2]; 10 ppm, read-out: Test B disease control rating (wheat leaf rust))
Cc1nn(C)c(Nc2c(F)cccc2[N+](=O)[O-])c1-c1ccc(C#N)cc1Cl [Compound 113, 3-chloro-4-[5-[(2-fluoro-6-nitrophenyl)amino]-1,3-dimethyl-1H-pyrazol-4-yl]benzonitrile] | 99% | 97% | 13% | 99% | 100% | 99% | – | – | – | – | – | – | – | – | – | – | – | –
Cc1nn(C)c(Nc2c(F)cccc2[N+](=O)[O-])c1-c1c(F)cc(C#N)cc1F [Compound 114] | – | – | – | – | – | – | 99% | 99% | 73% | 100% | 100% | 98% | – | – | – | – | – | –
Cc1nn(C)c(Nc2c(F)cc(Cl)cc2[N+](=O)[O-])c1-c1ccc(C#N)cc1Cl [Compound 115] | – | – | – | – | – | – | 99% | 94% | 77% | 99% | 100% | 100% | – | – | – | – | – | –
Cc1nn(C)c(Nc2c(Cl)cc(Cl)cc2[N+](=O)[O-])c1-c1ccc(C#N)cc1Cl [Compound 116] | – | – | – | – | – | – | 82% | 56% | 0% | 63% | 99% | 99% | – | – | – | – | – | –
Cc1cccc([N+](=O)[O-])c1Nc1c(-c2ccc(F)cc2Cl)c(C)nn1C [Compound 117] | – | – | – | – | – | – | 76% | 95% | 0% | 99% | 99% | 100% | – | – | – | – | – | –
Cc1nn(C)c(Nc2c(F)cccc2[N+](=O)[O-])c1-c1ccc(F)cc1F [Compound 118, 4-(2,4-difluorophenyl)-N-(2-fluoro-6-nitrophenyl)-1,3-dimethyl-1H-pyrazol-5-amine] | 99% | 98% | 0% | 100% | 100% | 100% | – | – | – | – | – | – | 60% | 27% | 0% | 99% | 100% | 80%
COc1ccc(Nc2c(-c3ccc(F)cc3Cl)c(C)nn2C)c([N+](=O)[O-])c1 [Compound 119] | – | – | – | – | – | – | 99% | 99% | 92% | 100% | 100% | 100% | – | – | – | – | – | –
Cc1nn(C)c(Nc2c(F)cc(F)cc2[N+](=O)[O-])c1-c1ccc(C#N)cc1Cl [Compound 120] | – | – | – | – | – | – | 99% | 89% | 44% | 100% | 100% | 100% | – | – | – | – | – | –
Cc1nn(C)c(Nc2c(F)cc(Cl)cc2[N+](=O)[O-])c1-c1ccc(F)cc1Cl [Compound 121, N-(4-chloro-2-fluoro-6-nitrophenyl)-4-(2-chloro-4-fluorophenyl)-1,3-dimethyl-1H-pyrazol-5-amine] | 100% | 100% | 99% | 100% | 100% | 100% | – | – | – | – | – | – | – | – | – | – | – | –
Cn1nc(C#N)c(-c2ccc(F)cc2Cl)c1Nc1c(F)cccc1[N+](=O)[O-] [Compound 122] | – | – | – | – | – | – | 99% | 94% | 0% | 100% | 100% | 100% | – | – | – | – | – | –
Cc1nn(C)c(Nc2c(Cl)cccc2[N+](=O)[O-])c1-c1ccc(C#N)cc1Cl [Compound 123] | – | – | – | – | – | – | 66% | 81% | 0% | 100% | 100% | 97% | – | – | – | – | – | –
COc1ccc(Nc2c(-c3ccc(C#N)cc3Cl)c(C)nn2C)c([N+](=O)[O-])c1 [Compound 124] | – | – | – | – | – | – | 99% | 99% | 25% | 100% | 100% | 100% | – | – | – | – | – | –
Cc1nn(C)c(Nc2c(Br)cccc2[N+](=O)[O-])c1-c1ccc(C#N)cc1Cl [Compound 125] | – | – | – | – | – | – | 9% | 0% | 0% | 99% | 100% | 96% | – | – | – | – | – | –
Cc1nn(C)c(Nc2ccccc2[N+](=O)[O-])c1-c1ccc(F)cc1Cl [Compound 126] | – | – | – | – | – | – | 68% | 96% | 0% | 100% | 98% | 85% | – | – | – | – | – | –
Cc1cc(F)c(Nc2c(-c3ccc(C#N)cc3Cl)c(C)nn2C)c([N+](=O)[O-])c1 [Compound 127, 3-chloro-4-[5-[(2-fluoro-4-methyl-6-nitrophenyl)amino]-1,3-dimethyl-1H-pyrazol-4-yl]benzonitrile] | 100% | 92% | 96% | 100% | 100% | 99% | – | – | – | – | – | – | – | – | – | – | – | –
CCc1nn(C)c(Nc2c(Cl)cc(Br)cc2[N+](=O)[O-])c1-c1ccc(F)cc1Cl [Compound 128] | – | – | – | – | – | – | 33% | 96% | 31% | 99% | 100% | 98% | – | – | – | – | – | –
Cc1nn(C)c(Nc2cc(Cl)ccc2[N+](=O)[O-])c1-c1ccc(F)cc1Cl [Compound 130] | – | – | – | – | – | – | 0% | 20% | 0% | 85% | 85% | 86% | – | – | – | – | – | –
Cc1nn(C)c(Nc2c(F)cc(Cl)cc2[N+](=O)[O-])c1-c1ccc(F)cc1Br [Compound 131] | – | – | – | – | – | – | 100% | 99% | 80% | 99% | 100% | 100% | – | – | – | – | – | –
